Results published in article PMC9382192, “Combined treatment with epigenetic agents enhances anti-tumor activity of MAGE-D4 peptide-specific T cells by upregulating the MAGE-D4 expression in glioma” (Frontiers in Oncology, 2022).

Legend:
peptide/HLA-A2 complex = peptide/HLA-A2 complex (Homo sapiens, UniProt P04439, D140Y/D185E/D98H/E176V/E277Q/G131W/G231S/I119V/I121R/I166T/I218V/L300P/L318F/N151K/N90K/P208A/P217A/Q86G/Q94H/R138H/R169H/T345S); assay: Peptide/HLA-A2 complex stability assay on T2 cells; type: binding; details: 50 μM peptide + β2 microglobulin 2.5 μg/ml, 18 h 37°C, brefeldin A 1 h, read at 0, 2, 4, 6 h, flow cytometry
Protocol: T2 cells were collected and placed in 24-well plates (1 × 10^6/ml), 1 ml in each well. Predictive peptides (50 μM) and β2 microglobulin (2.5 μg/ml) were added, respectively. […] After the incubation, T2 cells were washed twice with cold PBS to clear the unbound peptide, then brefeldin A (10 μg/m) was added and incubated for 1 h. Then, cells were washed and incubated at 37°C for 0, 2, 4, and 6 h; FITC-labeled mouse anti-human HLA-A2 monoclonal antibody was added and incubated at 4°C for 30 min under dark conditions. The MFI of cells was detected by flow cytometry after washing twice. The results are expressed as dissociation complex 50 (DC50), meaning the time required for the loss of 50% of the stabilized peptide/complex.

HLA-A2 [1] = assay: Peptide binding assay on T2 cells; parameters: species or system human; details: 50 µg/ml peptide, 37°C 18 h, FITC anti-HLA-A2 (BB7.2), flow cytometry, FI = (MFI peptide − MFI background)/MFI background
Protocol: Peptide binding affinity to HLA-A2 was assessed using T2 cells, a cell line that expresses HLA-A2 molecules but is deficient in antigen presentation. […] After incubation, the cells were washed in Phosphate buffered saline (PBS) and further incubated with FITC-conjugated anti-HLA-A2 antibody (BB7.2; BD Biosciences) at 4°C for 45 min. The cells were then washed and re-suspended with 300 µl of PBS and subjected to flow cytometer analysis (FACS Calibur, BD Biosciences). The fluorescence index (FI) was calculated as follows: FI = mean fluorescence intensity (MFI) with the given peptide − MFI without peptide/MFI without peptide.

autologous T cells = details: T cells with peptide-pulsed autologous DCs 10:1, 72 h; versus DCs without peptide
Protocol: PBMCs were isolated from the peripheral blood samples of 8 HLA-A2^+ healthy donors, with University Ethics Review Committee-approved, written consent. The effector T lymphocytes and DCs were prepared by our published method ([31]). CD8^+ T cells were isolated from PBMCs using CD8^+ negative selection MicroBeads EasySep™ Human CD8^+ T Cell Isolation Kit (17953, stemcell) according to the manufacturers.
For T-cell stimulation, T cells were cultured with RPMI1640 complete medium containing IL-2 (20 ng/ml) mixed with peptide-pulsed autologous DCs at a ratio of 10:1 and co-cultured for 72 h. The supernatant of DCs and T cells co-cultured for 72h was used to detect IL-2 and γ-IFN. The capacity of peptide-pulsed DCs to stimulate the proliferation of autologous T cells was evaluated using a Cell Counting Kit-8 (CCK-8, Beiltime Biotec, China), as described using our published method ([31]). CCK-8 solution (20 μl/well) was added in 2 h before the end of culture. Then, the optical density (OD) was measured by microplate tester. The stimulation index (SI) is calculated according to the following formula: SI = (experiment well OD value − background OD value)/(blank control well OD value − background OD value).

IL-2 = IL-2 ELISA of DC/T-cell co-culture supernatant; type: cell-based, human; details: 72 h co-culture supernatant, versus negative control peptide
Protocol: Production of cytokines in the supernatants was determined using commercially available ELISA kits (Cloud-Clone Corporation, Wuhan, China) according to the protocol of the manufacturer. Approximately 50 μl of supernatant and different concentration standards were added and mixed with 100 μl of horseradish peroxidase (HRP) labeled detection antibody against a 96-well plate, respectively, except for the blank control. After incubation at 37°C for 60 min, we washed the plate five times. Add substrate A and substrate B 50 μl respectively, incubate for 15min in a 37°C incubator in dark. Then, 50 μl of stop solution was added and a 450 nm absorbance value (OD value) was measured within 15 min. The regression equation of the standard curve is calculated according to the concentration of the standard substance and the OD value, and the corresponding sample concentration is calculated on the basis of the regression equation.

U251 = assay: LDH cytotoxicity assay and HLA block, U251; type: cell-based, human; details: DAC + TSA-treated U251, E:T 50:1, 4 h
Protocol: (§1) The human glioma cell lines (U87-MG and U251) were obtained from the Cell Bank of Type Culture Collection of the Chinese Academy of Science (Shanghai, China). Decitabine (DAC, CAS No. A3656), valproic acid (VPA, CAS No. 99-66-1), and trichostatin A (TSA, CAS No. 58880-19-6) were purchased from Sigma-Aldrich Corporation (St. Louis, MO, USA). DAC and TSA were dissolved in DMSO to a concentration of 10 mM. Aliquots were stored at −80°C and diluted with media before being used. Drug treatments were divided into seven groups: (1) DAC group: cells were cultured in medium on the presence of 1 μM DAC for 120 h; (2) VPA group: cells were grown in medium containing 1 mM VPA for 120 h; (3) TSA group: cells were cultured in medium supplemented with 1 μM TSA for 24 h; (4) D + V group: cells were cultured with 1 μM DAC and 1 mM VPA for 120 h; (5) D + T group: cells were cultured with 1 μM DAC for 120 h, followed by 1 μM TSA for 24 h; (6) Control group: cells were cultured with 0.09% DMSO, which is the highest concentration of DMSO used in this study in consideration of the potential toxicity of DMSO to living cells. Human recombinant interleukin (IL) IL-2, IL-4, and human recombinant granulocyte/macrophage colony-stimulating factor (GM-CSF) were purchased from R&D Systems.
The cytotoxic activity of MAGE-D4 peptide-specific CTLs to glioma cells was determined according to the instructions of the manufacturers by our published method ([31]). […] Four hours later, suspended cells were collected for CD107a flow cytometry, meanwhile, the supernatant was collected and analyzed with granzyme A and perforin ELISA kit (Cloud-Clone Corporation, Wuhan, China) at 450 nm, and the LDH kit (Promega, USA) at 490 nm. The percentage of specific lysis was calculated using the following formula: [(experimental release − spontaneous release)/(maximum release − spontaneous release)] × 100. […] Then, the cytotoxicity assay was measured and calculated as mentioned above.

HLA-A2 [2] = assay: HLA-A2 expression in U251; type: cell-based, human; details: DAC 1 μM 120 h, TSA 1 μM 24 h
Protocol: as §1, with “Decitabine (DAC, CAS No.” left out, “-80°C” for “−80°C”, “[…] The cells were then harvested, washed with PBS buffer three times,” for “Human recombinant interleukin (IL) IL-2, IL-4,”, “analyzed by a FACScan flow cytometer (BD Biosciences, Franklin Lakes, NJ, USA) using BD AccuriTM C6 Software (BD Biosciences).” for “human recombinant granulocyte/macrophage colony-stimulating factor (GM-CSF) were purchased from R&D Systems.”

MAGE-D4 promoter [3] = assay: Pyrosequencing of MAGE-D4 promoter in U251; type: cell-based, human; details: U251, compared with control group
Protocol: as §1, with “Decitabine (DAC, CAS No.” left out, “-80°C” for “−80°C”, “Systems. Genomic DNA was isolated from cells using a DNA Isolation Kit (Vazyme, China). The methylation status of the MAGE-D4 promoter in cells was quantified by the PyroMark Q96 ID pyrosequencing platform (Qiagen), which was performed by Shanghai […] Biotech Co., Ltd. The methylation status of each site was analyzed automatically by the accompanying software Pyro Q-CpG (Qiagen). Two regions in the core promoter were detected, which contained 18 CpG sites. Primers used in pyrosequencing were as follows: region 1: [NT] (forward) and [NT] (reverse); region 2: [NT] (forward) and [NT] (reverse). Sequences of the MAGE-D4 promoter and pyrosequencing regions containing CpG sites are listed in Supplemental Materials.” for “Systems.”

MAGE-D4 promoter [4] = assay: Pyrosequencing of MAGE-D4 promoter in U87; type: cell-based, human; details: U87, compared with control group
Protocol: The human glioma cell lines (U87-MG and U251) were obtained from the Cell Bank of Type Culture Collection of the Chinese Academy of Science (Shanghai, China). […] A3656), valproic acid (VPA, CAS No. 99-66-1), and trichostatin A (TSA, CAS No. 58880-19-6) were purchased from Sigma-Aldrich Corporation (St. Louis, MO, USA). DAC and TSA were dissolved in DMSO to a concentration of 10 mM. Aliquots were stored at -80°C and diluted with media before being used. […] The methylation status of the MAGE-D4 promoter in cells was quantified by the PyroMark Q96 ID pyrosequencing platform (Qiagen), which was performed by Shanghai […] Biotech Co., Ltd. The methylation status of each site was analyzed automatically by the accompanying software Pyro Q-CpG (Qiagen). Two regions in the core promoter were detected, which contained 18 CpG sites. […]

VLCLPPRNV [Peptide P7]
DC50 (time required for 50% dissociation of the HLA-A*0201/peptide complex) (peptide/HLA-A2 complex): <2 h

SVQSESYSV [Peptide P1]
FI (fluorescence index, HLA-A*0201 binding affinity) (HLA-A2 [1]): 0.007

TLTSFDIHI [Peptide P2]
FI (fluorescence index, HLA-A*0201 binding affinity) (HLA-A2 [1]): 0.877

ALQLDPETL [Peptide P5]
stimulation index (SI), T-cell proliferation, CCK8 (autologous T cells): can induce T-cell proliferation
IL-2 secreted by DC-stimulated T cells (IL-2): higher IL-2

ILSNEPWEL [Peptide P4]
DC50 (time required for 50% dissociation of the HLA-A*0201/peptide complex) (peptide/HLA-A2 complex): >2 h
stimulation index (SI), T-cell proliferation, CCK8 (autologous T cells): can induce T-cell proliferation
cytotoxicity of peptide-specific T cells (specific lysis, LDH) (U251): cytotoxicity on the DAC + TSA-treated U251 cells with statistical significance

Nc1ncn([C@H]2C[C@H](O)[C@@H](CO)O2)c(=O)n1 [DAC, Decitabine]
HLA-A2 levels (HLA-A2 [2]): elevated HLA-A2 levels with statistical significance
methylation level of MAGE-D4 promoter region 1 (MAGE-D4 promoter [3]): decreased significantly
methylation level of MAGE-D4 promoter region 1 (MAGE-D4 promoter [4]): decreased significantly

SLGPGLRIL [Peptide P3]
FI (fluorescence index, HLA-A*0201 binding affinity) (HLA-A2 [1]): 0.887

CCCC(CCC)C(=O)O [VPA, valproic acid]
methylation level of MAGE-D4 promoter region 1 (MAGE-D4 promoter [3]): decreased significantly
methylation level of MAGE-D4 promoter region 2 (MAGE-D4 promoter [3]): decreased significantly
total methylation levels of regions 1 and 2 of MAGE-D4 core promoter (MAGE-D4 promoter [3]): decreased significantly
methylation level of MAGE-D4 promoter region 1 (MAGE-D4 promoter [4]): decreased significantly
